According to patent US11464770B2, “Anticancer pharmaceutical composition” (NATIONAL CANCER CENTER, priority 2016, dated 2022):
Read-outs that look alike come from different tables or passages of the source.

System: colorectal cancer cell lines (e.g. DLD-1, HCT 116, SW620, HCT-15, HCT-8, RKO)
Assay: Cell based assay, cell viability (CellTiter-Glo), colorectal cancer cell lines
Procedure, shortened: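 Viability measured by ATP luminescence following 72 h treatment over a 0–2 μM final concentration range.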

[1] = Homo sapiens, DLD-1, 72 hours treatment, read-out: IC50, colorectal cancer cell line DLD-1
[2] = Homo sapiens, HCT 116, 72 hours treatment, read-out: IC50, colorectal cancer cell line HCT 116
[3] = Homo sapiens, HCT-8, 72 hours treatment, read-out: IC50, colorectal cancer cell line HCT-8
[4] = Homo sapiens, HCT-15, 72 hours treatment, read-out: IC50, colorectal cancer cell line HCT-15
[5] = Homo sapiens, HT-29, 72 hours treatment, read-out: IC50, colorectal cancer cell line HT-29
[6] = Homo sapiens, LoVo, 72 hours treatment, read-out: IC50, colorectal cancer cell line LoVo
[7] = Homo sapiens, SW480, 72 hours treatment, read-out: IC50, colorectal cancer cell line SW480
[8] = Homo sapiens, SW-620, SW620, 72 hours treatment, read-out: IC50, colorectal cancer cell line SW620
[9] = RKO, 72 hours treatment, read-out: IC50, colorectal cancer cell line RKO
[10] = Homo sapiens, DLD-1 cells, 72 hours treatment, read-out: IC50, colorectal cancer cell line DLD-1
[11] = Homo sapiens, HCT 116 cells, 72 hours treatment, read-out: IC50, colorectal cancer cell line HCT 116
[12] = Homo sapiens, HCT-8 cells, 72 hours treatment, read-out: IC50, colorectal cancer cell line HCT-8
[13] = Homo sapiens, HCT-15 cells, 72 hours treatment, read-out: IC50, colorectal cancer cell line HCT-15
[14] = Homo sapiens, HT-29 cells, 72 hours treatment, read-out: IC50, colorectal cancer cell line HT-29
[15] = Homo sapiens, LoVo cells, 72 hours treatment, read-out: IC50, colorectal cancer cell line LoVo
[16] = Homo sapiens, RKO cells, 72 hours treatment, read-out: IC50, colorectal cancer cell line RKO
[17] = Homo sapiens, SW480 cells, 72 hours treatment, read-out: IC50, colorectal cancer cell line SW480
[18] = Homo sapiens, SW-620, SW620 cells, 72 hours treatment, read-out: IC50, colorectal cancer cell line SW620

Row | Compound | IC50 [1] [nM] | IC50 [2] [nM] | IC50 [3] [nM] | IC50 [4] [nM] | IC50 [5] [nM] | IC50 [6] [nM] | IC50 [7] [nM] | IC50 [8] [nM] | IC50 [9] [nM] | IC50 [10] [nM] | IC50 [11] [nM] | IC50 [12] [nM] | IC50 [13] [nM] | IC50 [14] [nM] | IC50 [15] [nM] | IC50 [16] [nM] | IC50 [17] [nM] | IC50 [18] [nM]
1 | CC(=O)c1c([S+](C)[O-])n(C(C)=O)c2c(Br)ccc(Cl)c2c1=O (stereo not drawn) [Compound 19, 1,1′-(8-bromo-5-chloro-2-(methylsulfinyl)-4-oxoquinoline-1,3(4H)-diyl)bis(ethan-1-one)] | > 2000 | > 2000 | > 2000 | > 2000 | > 10000 | > 2000 | > 2000 | > 2000 | > 2000 | – | – | – | – | – | – | – | – | –
2 | CC(=O)c1c([S+]([O-])Cc2cnc3[nH]ccc3c2)[nH]c2c(Br)ccc(Cl)c2c1=O (stereo not drawn) [Compound 107, 2-(((1H-pyrrolo[2,3-b]pyridin-5-yl)methyl)sulfinyl)-3-acetyl-8-bromo-5-chloroquinolin-4(1H)-one] | – | – | – | – | – | – | – | – | – | > 2000 | > 2000 | > 2000 | > 2000 | > 10000 | > 2000 | > 2000 | > 2000 | > 2000
3 | CC(=O)c1c([S+]([O-])CC#N)[nH]c2c(Br)ccc(Cl)c2c1=O (stereo not drawn) [Compound 65, 2-((3-acetyl-8-bromo-5-chloro-4-oxo-1,4-dihydroquinolin-2-yl)sulfinyl)acetonitrile] | > 2000 | > 2000 | > 2000 | > 2000 | > 10000 | > 2000 | > 2000 | > 2000 | > 2000 | – | – | – | – | – | – | – | – | –
4 | CC(=O)c1c([S+]([O-])Cc2ccc(-n3cccn3)nc2)[nH]c2c(Br)ccc(Cl)c2c1=O (stereo not drawn) [Compound 99, 2-(((6-(1H-pyrazol-1-yl)pyridin-3-yl)methyl)sulfinyl)-3-acetyl-8-bromo-5-chloroquinolin-4(1H)-one] | – | – | – | – | – | – | – | – | – | 870 | 820 | 980 | 970 | > 10000 | 1450 | 950 | 1300 | 920
5 | CC(=O)c1c(SCC#N)[nH]c2c(Br)ccc(Cl)c2c1=O [Compound 66, 2-((3-acetyl-8-bromo-5-chloro-4-oxo-1,4-dihydroquinolin-2-yl)thio)acetonitrile] | > 2000 | > 2000 | > 2000 | > 2000 | > 10000 | > 2000 | > 2000 | > 2000 | > 2000 | – | – | – | – | – | – | – | – | –
6 | Cc1cc(C[S+]([O-])c2[nH]c3c(Br)ccc(Cl)c3c(=O)c2C(=O)C2CC2)no1 (stereo not drawn) [Compound 96, 8-bromo-5-chloro-3-(cyclopropanecarbonyl)-2-(((5-methylisoxazol-3-yl)methyl)sulfinyl)quinolin-4(1H)-one] | – | – | – | – | – | – | – | – | – | 1820 | 1530 | > 2000 | 1870 | > 10000 | > 2000 | 1580 | > 2000 | 1660
7 | CC(=O)c1c(S(C)(=O)=O)n(S(=O)(=O)c2ccc(C(C)(C)C)cc2)c2c(Br)ccc(Cl)c2c1=O [Compound 41, 3-acetyl-8-bromo-1-((4-(tert-butyl)phenyl)sulfonyl)-5-chloro-2-(methylsulfonyl)quinolin-4(1H)-one] | > 2000 | > 2000 | > 2000 | > 2000 | > 10000 | > 2000 | > 2000 | > 2000 | > 2000 | – | – | – | – | – | – | – | – | –
8 | CSc1c(C(C)=O)c(=O)c2c(Cl)ccc(Br)c2n1S(C)(=O)=O [Compound 35, 3-acetyl-8-bromo-5-chloro-1-(methylsulfonyl)-2-(methylthio)quinolin-4(1H)-one] | > 2000 | > 2000 | > 2000 | > 2000 | > 10000 | > 2000 | > 2000 | > 2000 | > 2000 | – | – | – | – | – | – | – | – | –
9 | CC(=O)c1c(SCc2ccc([N+](=O)[O-])cc2)[nH]c2c(Br)ccc(Cl)c2c1=O [Compound 32, 3-acetyl-8-bromo-5-chloro-2-((4-nitrobenzyl)thio)quinolin-4(1H)-one] | > 2000 | > 2000 | > 2000 | > 2000 | > 10000 | > 2000 | > 2000 | > 2000 | > 2000 | – | – | – | – | – | – | – | – | –
10 | CC(=O)c1c(SCc2ccccc2)n(C(=O)c2ccc(Br)cc2)c2c(Br)ccc(Cl)c2c1=O [Compound 23, 3-acetyl-2-(benzylthio)-8-bromo-1-(4-bromobenzoyl)-5-chloroquinolin-4(1H)-one] | > 2000 | > 2000 | > 2000 | > 2000 | > 10000 | > 2000 | > 2000 | > 2000 | > 2000 | – | – | – | – | – | – | – | – | –
11 | O=C(c1c([S+]([O-])Cc2ccc(SC(F)(F)F)cc2)[nH]c2c(Br)ccc(Cl)c2c1=O)C1CC1 (stereo not drawn) [Compound 101, 8-bromo-5-chloro-3-(cyclopropanecarbonyl)-2-((4-((trifluoromethyl)thio)benzyl)sulfinyl)quinolin-4(1H)-one] | – | – | – | – | – | – | – | – | – | > 2000 | 1740 | 1610 | > 2000 | > 10000 | > 2000 | 1910 | > 2000 | > 2000
